# Residues, ends and D or L forms follow the SMILES beside them. No end group written: not given here.
# Legend:
# [1] = cited from earlier work; for t1/2: human serum mixed 1:1 with peptide 1 mM in water, 37 °C with stirring, aliquots 0-1440 min, TCA precipitation, HPLC
# From the text: Table 1 Sequence and properties of peptides in this study. | column: t1/2 (min) || In this work, we focus on crotalicidin (Ctn), a 34-residue AMP from the venom of Crotalus durissus terrificus, a South American pit viper. […] It is, however, slightly toxic to eukaryotic cells, including cancer cells, which makes it a good anticancer peptide (ACP) candidate. Virtual Ctn dissection with elastase yields two fragments, Ctn[1-14] and Ctn[15-34]. While the former (KRFKKFFKKVKKSV) retains the α-helical conformation of Ctn, it loses both the anticance ...
# [2] = test system: A. baumannii; assay: Histopathology: hematoxylin and eosin stain and tissue Gram stain; assay type: in vivo, mouse; conditions: infected and treated mice
# Protocol: Following termination of the animals, the following organs were harvested and preserved: right lung, digestive system, pancreas, kidneys, liver, spleen, and brain. These organs were fixed in paraformaldehyde at 4 °C for 24 h.
# The tissue processing proceeded through a stepwise procedure. Firstly, the tissues underwent a rinse with formalin for 1.5 h, followed by cleaning with distilled water for 5 min. Subsequently, they were dehydrated using a series of graded ethanol solutions: 80% ethanol for 1 h, 96% ethanol for two consecutive immersions lasting 1 h each, and finally, 100% ethanol for 2 consecutive immersions of 1 h each and an additional immersion for 1.5 h. Following dehydration, the tissues were submerged in xylene for two immersions, each lasting 1.5 h, before being placed in hot liquid paraffin for two consecutive immersions of 1 h each and an additional immersion of 2 h. The treated specimens were embedded in tissue cassettes using a TissueTek embedding console and allowed to cool until the paraffin solidified.
# From each paraffin block, […] sections were cut using a microtome (Leica) and mounted on slides. These slides underwent rehydration through a series of graded alcohols: 100% ethanol for 5 min, 85% ethanol for 5 min, 70% ethanol for 5 min, and distilled water. […] After drying, the sections were analyzed using a microscope (Leica DMR, Leica Biosystems, IL, United States). […]
# [3] = test system: Balb/c mice; assay: Tolerance assay 1; assay type: in vivo, mouse; conditions: single i.p. dose, 30 mg/kg Ctn[15-34], 3 mg/kg Ctn re, five female mice per group, 14 days
# Protocol: Assay 1: […] randomly distributed groups of five female mice each were used for Ctn[15-34] (30 mg/kg) and Ctn re (3 mg/kg) and negative control (HBS). Ctn[15-34] re was not included due to spontaneous mortality in the sighting study, even at low concentrations. The peptide was administered i.p., and mice were monitored twice on day 0, once a day until day 4, and then three times a week. The study lasted for 14 days, after which the animals were euthanized, and a systematic necropsy was performed.
# (§1) Body weight (BW, g) gain (%) was determined at different stages. In the tolerance assays, BW gain was recorded before inoculation and twice a week for 2 weeks. In the efficacy studies, BW gain was likewise measured before inoculation and then twice a day.
# (§2) Nine clinical parameters were assessed by a scoring system (see Table S1). For each parameter a score from 0 to 3 in increasing severity was used. In the sighting (tolerance) study, the clinical score was measured at 10 min, 30 min, 1 h, 2 h, 4 h, 7 h, 24 h, and 48 h after peptide administration. In assays 1 and 2 of the tolerance study, scoring was recorded twice a week for 2 weeks. In the efficacy study, the clinical score was recorded every 2–3 h on day 0 and twice a day on days 1 and 2. An animal was euthanized if it scored 3 on any parameter, or if a combined score of 7 or above was reached.
# [4] = test system: Balb/c mice; assay: Sighting study (tolerance in mice); assay type: in vivo, mouse; conditions: for tolerance in sighting study: i.p., 30 mg/kg for Ctn[15-34] and Ctn[15-34] re, 3 mg/kg for Ctn re as initial doses; for time to death of an animal: sighting study, one animal
# Protocol: To determine the maximum lethal dose and appropriate doses for the main study, a sighting study (Figure 2A) was first conducted. Peptides (Ctn[15-34], Ctn[15-34] re and Ctn re) were administered intraperitoneally (i.p.) at initial doses of 30 mg/kg for Ctn[15-34] and Ctn[15-34] re and 3 mg/kg for Ctn re. If no toxicity signs were observed, the dose was increased. If toxicity signs or death occurred, a lower dose was administered to another animal until an adequate dose was found. After the sighting study was completed, two main studies were performed.
# as §2
# [5] = test system: Balb/c mice; assay: Tolerance assay 2; assay type: in vivo, mouse
# Protocol: Assay 2: Two randomly distributed groups of six female mice each were given two different concentrations of Ctn[15-34] (30 and 20 mg/kg). Each animal was treated with each dose three times a day for three days.
# as §1, §2
# [6] = fragments compared with Ctn; cited from earlier work
# From the text: In this work, we focus on crotalicidin (Ctn), a 34-residue AMP from the venom of Crotalus durissus terrificus, a South American pit viper. […] It is, however, slightly toxic to eukaryotic cells, including cancer cells, which makes it a good anticancer peptide (ACP) candidate. Virtual Ctn dissection with elastase yields two fragments, Ctn[1-14] and Ctn[15-34]. While the former (KRFKKFFKKVKKSV) retains the α-helical conformation of Ctn, it loses both the anticance ...
# [7] = test system: A. baumannii; assay: Efficacy assay 1 in mouse systemic infection model; assay type: in vivo
# Protocol: (§3) A systemic infection model was established in mice, as described before. Briefly, an aliquot from A. baumannii stock in 15% glycerol at −80 °C was taken to culture in 3 mL of LB overnight at 37 °C and 250 rpm. After an OD600 reading to adjust bacterial concentration, the culture was diluted with an identical volume of 10% porcine mucin (an enhancer of bacterial infectivity) to a final 1 × 10^8 CFU/mL concentration. A 10 mL/kg inoculation volume was used for each animal.
# Assay 1: A total of 24 mice (12 male, 12 female) randomly distributed into four groups were infected i.p. as described above, then each group was treated with Ctn[15-34] (30 mg/kg), Ctn re (3 mg/kg), colistin (10 mg/kg, positive control) or vehicle (HBS, negative control). Treatment (performed blindly) was applied 2 h after infection in a single i.p. dose. […]
# Nine clinical parameters were assessed by a scoring system (see Table S1). […] In the sighting (tolerance) study, the clinical score was measured at 10 min, 30 min, 1 h, 2 h, 4 h, 7 h, 24 h, and 48 h after peptide administration. In assays 1 and 2 of the tolerance study, scoring was recorded twice a week for 2 weeks. In the efficacy study, the clinical score was recorded every 2–3 h on day 0 and twice a day on days 1 and 2. An animal was euthanized if it scored 3 on any parameter, or if a combined score of 7 or above was reached.
# [8] = test system: A. baumannii; assay: Colony-forming units (CFU) in mouse tissues; assay type: in vivo
# Protocol: CFUs in the spleen and lungs of animals in the efficacy studies were counted after euthanasia. One lung and half of the spleen were extracted from each animal. Animals found dead overnight were excluded. The organs were weighed and homogenized in 1 mL of HBS. Subsequently, six serial 10-fold dilutions were prepared, each dilution seeded on a Petri dish with LB-agar and colonies counted after 16 h incubation at 37 °C. Final CFU counts are expressed relative to organ weight (CFU/g).
# [9] = test system: A. baumannii; assay: Efficacy assay 2 in mouse systemic infection model; assay type: in vivo
# Protocol: as §3
# Assay 2: In total, 24 mice (12 male, 12 female) randomly distributed into six groups were infected i.p. as described above, then treated in duplicate groups with Ctn[15-34] (20 mg/kg), colistin (5 mg/kg, positive control) or vehicle (HBS, negative control). Treatment (performed blindly) was applied i.p. 2 h after infection and then every 4 h during day 0, and thrice daily for the next 2 days. All animals were checked for clinical signs twice a day for three days, as described in Table S1. On day 2, animals were euthanized with a 200 mg/kg i.p. dose of pentobarbital.
# as §2
molecule,measurement,setting,value
KKRLKKIFKKPMVIGVTIPF-NH2 [Ctn[15-34]],t1/2,[1],12.8 h
same,"hematoxylin and eosin staining of spleen, lung, liver and kidney",[2],apoptosis was noted in the spleen lymphocytes of one animal
same,clinical condition in tolerance assay 1,[3],most animals showed improved clinical conditions in the following days
same,tolerance in sighting study,[4],viable at the predicted dosages
same,clinical signs in tolerance assay 2,"[5]; 20 mg/kg i.p. thrice daily for 3 days, compared with 30 mg/kg",reversible and consistently lower than for the 30 mg/kg group
same,BW loss during the first 24 h,"[5]; 30 and 20 mg/kg i.p. thrice daily for three days, both dosage groups, six female mice each",6–9%
LL-37: AMP named for comparison of half-life [reference compound],half-life,"[1]; typical AMP named for comparison with Ctn[15-34], no reference given",1 h
"KRFKKFFKKVKKSV [Ctn[1-14], fragment of crotalicidin, residues 1-14]",anticancer and antimicrobial properties,[6],loses both the anticancer and antimicrobial properties
CC[C@@H](C)[C@@H](NC(=O)CNC(=O)[C@H](NC(=O)[C@H](NC(=O)[C@H](NC(=O)[C@H]1CCCN1C(=O)[C@H](N)Cc1ccccc1)[C@H](C)CC)[C@H](C)O)C(C)C)C(=O)N[C@@H](C(=O)N[C@H](CCSC)C(=O)N1CCC[C@@H]1C(=O)N[C@H](CCCCN)C(=O)N[C@H](CCCCN)C(=O)N[C@H](Cc1ccccc1)C(=O)N[C@@H](C(=O)N[C@H](CCCCN)C(=O)N[C@H](CCCCN)C(=O)N[C@H](CC(C)C)C(=O)N[C@H](CCCNC(=N)N)C(=O)N[C@H](CCCCN)C(=O)N[C@H](CCCCN)C(N)=O)[C@H](C)CC)C(C)C [Ctn[15-34] re] (HELM PEPTIDE1{[dF].[dP].[dI].[dT].[dV].G.[dI].[dV].[dM].[dP].[dK].[dK].[dF].[dI].[dK].[dK].[dL].[dR].[dK].[dK].[am]}$$$$V2.0),t1/2,[1],15.4 h
same,time to death of an animal,[4]; 5 mg/kg i.p.,33 min
same,time to death of an animal,[4]; 15 mg/kg i.p.,≤ 6 min
same,time to death of an animal,[4]; 30 mg/kg i.p.,≤ 3 min
same,tolerance in sighting study,[4],toxic
CC[C@@H](C)[C@@H](NC(=O)CNC(=O)[C@H](NC(=O)[C@H](NC(=O)[C@H](NC(=O)[C@H]1CCCN1C(=O)[C@H](N)Cc1ccccc1)[C@H](C)CC)[C@H](C)O)C(C)C)C(=O)N[C@@H](C(=O)N[C@H](CCSC)C(=O)N1CCC[C@@H]1C(=O)N[C@H](CCCCN)C(=O)N[C@H](CCCCN)C(=O)N[C@H](Cc1ccccc1)C(=O)N[C@@H](C(=O)N[C@H](CCCCN)C(=O)N[C@H](CCCCN)C(=O)N[C@H](CC(C)C)C(=O)N[C@H](CCCNC(=N)N)C(=O)N[C@H](CCCCN)C(=O)N[C@H](CCCCN)C(=O)N[C@@H](C(=O)N[C@H](CO)C(=O)N[C@H](CCCCN)C(=O)N[C@H](CCCCN)C(=O)N[C@@H](C(=O)N[C@H](CCCCN)C(=O)N[C@H](CCCCN)C(=O)N[C@H](Cc1ccccc1)C(=O)N[C@H](Cc1ccccc1)C(=O)N[C@H](CCCCN)C(=O)N[C@H](CCCCN)C(=O)N[C@H](Cc1ccccc1)C(=O)N[C@H](CCCNC(=N)N)C(=O)N[C@H](CCCCN)C(N)=O)C(C)C)C(C)C)[C@H](C)CC)C(C)C [Ctn re] (HELM PEPTIDE1{[dF].[dP].[dI].[dT].[dV].G.[dI].[dV].[dM].[dP].[dK].[dK].[dF].[dI].[dK].[dK].[dL].[dR].[dK].[dK].[dV].[dS].[dK].[dK].[dV].[dK].[dK].[dF].[dF].[dK].[dK].[dF].[dR].[dK].[am]}$$$$V2.0),t1/2,[1],3.52 h
same,clinical condition in tolerance assay 1,[3],most animals showed improved clinical conditions in the following days
same,tolerance in sighting study,[4],viable at the predicted dosages
colistin,"Gram stain, bacterial load in spleen, lung, liver and kidney",[2],no evidence of bacterial survival
same,clinical signs of treated infected animals,"[7]; efficacy assay 1, colistin 10 mg/kg single i.p. dose",weight loss on the first day with subsequent recovery
same,survival rate,"[7]; efficacy assay 1, single i.p. dose 2 h after infection, colistin 10 mg/kg, 3 days",100%
same,CFU/g in left lung and spleen,"[8]; after both efficacy studies, positive control group",10^1–10^2 CFU/g
same,bacterial presence in the spleen or lungs,"[8]; efficacy study 2, animals not surviving the thrice daily colistin dosage",nearly negligible
same,clinical signs of treated infected animals,"[9]; efficacy study 2, thrice daily dose of colistin, compared to the previous study",Increased toxicity
same,female animals surviving at the endpoint,"[9]; efficacy study 2, thrice daily i.p. dosing, female mice",75%
same,male animals surviving at the endpoint,"[9]; efficacy study 2, thrice daily i.p. dosing, male mice",50%

# Reference: PMC11431785, “From In Vitro Promise to In Vivo Reality: An Instructive Account of Infection Model Evaluation of Antimicrobial Peptides” (International Journal of Molecular Sciences, 2024)
